# According to US20150352108A1, “AMINO-PYRIMIDINE COMPOUNDS AS INHIBITORS OF TBK1 AND/OR IKK EPSILON” (Alzheimer's Institute of America, priority 2009, published 2015):
# Target: T1, IKKε (Homo sapiens, UniProt Q14164)
# T1 construct: His-tag; made in house; host or cells: Sf9 insect cells
# T1 sequence (Q14164 1-716): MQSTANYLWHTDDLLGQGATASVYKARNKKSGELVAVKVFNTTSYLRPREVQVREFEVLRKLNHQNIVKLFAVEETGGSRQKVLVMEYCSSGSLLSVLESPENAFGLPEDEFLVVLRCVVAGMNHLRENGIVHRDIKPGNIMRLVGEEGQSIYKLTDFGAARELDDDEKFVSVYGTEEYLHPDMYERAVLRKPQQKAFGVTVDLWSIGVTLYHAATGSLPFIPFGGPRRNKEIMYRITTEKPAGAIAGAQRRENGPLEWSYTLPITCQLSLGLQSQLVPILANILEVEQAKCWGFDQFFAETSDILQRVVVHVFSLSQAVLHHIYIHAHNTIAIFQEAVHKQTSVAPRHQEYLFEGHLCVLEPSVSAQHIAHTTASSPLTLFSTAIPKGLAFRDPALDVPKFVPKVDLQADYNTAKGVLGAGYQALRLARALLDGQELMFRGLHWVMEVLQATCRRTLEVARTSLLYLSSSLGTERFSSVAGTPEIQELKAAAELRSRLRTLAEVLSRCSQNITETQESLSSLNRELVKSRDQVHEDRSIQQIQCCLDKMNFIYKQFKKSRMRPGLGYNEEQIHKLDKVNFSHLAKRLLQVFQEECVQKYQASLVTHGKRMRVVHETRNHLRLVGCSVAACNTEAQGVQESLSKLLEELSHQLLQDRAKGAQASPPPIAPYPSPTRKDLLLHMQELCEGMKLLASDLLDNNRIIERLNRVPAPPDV
# Test: In-vitro IKKε kinase assay ([γ33]ATP filter-plate)
# Format: biochemical
# Details: text bins; read-out: IC50 for inhibition of the kinase activity of IKKε
# Procedure: IKKε enzyme was produced as a His-tag fusion in Sf9 cells and used at a final concentration of […]. TBK1 enzyme was produced as a His-tag fusion in Sf9 cells and used at a final concentration of 0.1 μg/ml. Kinase reactions were carried out in reaction buffer using myelin basic protein (Millipore, Ballerica, Mass.) or casein (Sigma, St. Louis, Mo.) as substrate at an ATP concentration equal to twice the Km,ATP value for each enzyme, corresponding to 32 μM ATP for IKKε and 60 μM ATP for TBK1, in the presence of 0.3 μCi [γ^33]ATP (PerkinElmer, Waltham, Mass.). Final enzyme concentrations were 0.1 or 0.015 μg/ml (IKKε) and 0.1 or 0.02 μg/ml (TBK1), representing “normal” and “sensitized” assay conditions respectively. Test compounds (or DMSO solvent as a control) were added prior to initiation of the reactions. Reactions were terminated after 30-45 minutes by adding 3% phosphoric acid. Terminated reactions were transferred to P-81 cellulose phosphate filterplates (Whatman, Inc., Piscataway, N.J.) and washed with 1% phosphoric acid on a vacuum apparatus. After air drying, scintillant (PerkinElmer, Waltham, Mass.) was added and the plates were read on a PerkinElmer TopCount NXT instrument. Counts were normalized to DMSO controls after background subtraction.
row,Compound,IC50 [nM]
1,"COc1cc(Nc2nccc(-c3ccc(OC)c(C#N)c3)n2)cc(C(=O)N2CC[C@@H](O)C2)c1 [compound 382, 5-{2-[(3-{[(3R)-3-Hydroxypyrrolidin-1-yl]carbonyl}-5-methoxyphenyl)amino]pyrimidin-4-yl}-2-methoxybenzonitrile]",50 to 500
2,"COc1ccc(-c2ccnc(Nc3ccc(NC(=O)NCCCN)cc3)n2)cc1C#N [Example 10, 1-(3-Aminopropyl)-3-(4-{[4-(3-cyano-4-methoxyphenyl)pyrimidin-2-yl]amino}phenyl) urea]",50 to 500
3,"N#Cc1cccc(-c2ccnc(Nc3ccc4c(c3)CCC4)n2)c1 [Example 198, 3-[2-(2,3-Dihydro-1H-inden-5-ylamino)pyrimidin-4-yl]benzonitrile]",50 to 500
4,"CCN1CCN(c2ccc(-c3ccnc(Nc4ccc(N5CCNC(=O)C5)c(OC)c4)n3)cc2C#N)CC1 [Example 36, 2-(4-Ethylpiperazin-1-yl)-5-(2-{[3-methoxy-4-(3-oxopiperazin-1-yl)phenyl]amino}pyrimidin-4-yl)benzonitrile]",50 to 500
5,"COc1ccc(COc2ccc(-c3ccnc(Nc4ccc(N5CCOCC5)cc4)n3)cc2C#N)cc1 [Example 40, 2-[(4-Methoxybenzyl)oxy]-5-(2-{[4-(morpholin-4-yl)phenyl]amino}pyrimidin-4-yl)benzonitrile]",50 to 500
6,"C[C@H](O)C(=O)NCCOc1ccc(-c2ccnc(Nc3ccc(N4CCOCC4)cc3)n2)cc1C#N [Example 250, (2S)-N-{2-[2-cyano-4-(2-{[4-(morpholin-4-yl)phenyl]amino}pyrimidin-4-yl)phenoxy]ethyl}-2-hydroxypropanamide]",50 to 500
7,"CC(=O)N1CC(COc2ccc(-c3ccnc(Nc4ccc(N5CCOCC5)cc4)n3)cc2C#N)C1 [Example 125, 2-[(1-acetylazetidin-3-yl)methoxy]-5-(2-{[4-(morpholin-4-yl)phenyl]amino}pyrimidin-4-yl)benzonitrile]",50 to 500
8,"COc1ccc(-c2ccnc(Nc3cccc(S(=O)(=O)NCCCO)c3)n2)cc1C#N [compound 306, 3-{[4-(3-Cyano-4-methoxyphenyl)pyrimidin-2-yl]amino}-N-(3-hydroxypropyl) benzenesulfonamide]",50 to 500
9,CN(C)C1CCN(c2ccc(-c3ccnc(Nc4ccc(N5CCOCC5)cc4)n3)cc2C#N)C1 (stereo not shown) [Example 69],50 to 500
10,"CC(Oc1ccc(-c2ccnc(Nc3ccc(N4CCOCC4)cc3)n2)cc1C#N)C(=O)O (stereo not shown) [Example 265, 2-[2-Cyano-4-(2-{[4-(morpholin-4-yl)phenyl]amino}pyrimidin-4-yl)phenoxy]propanoic acid]",50 to 500
11,COc1cc(Nc2nccc(-c3ccc(OC4CCNCC4)c(C#N)c3)n2)ccc1S(=O)(=O)NCCCN(C)C [compound 398],50 to 500
12,"CN1CCN(c2ccc(Nc3nccc(-c4cc(C#N)cc(OCc5ccccc5)c4)n3)cc2)CC1 [Example 244, 3-(Benzyloxy)-5-(2-{[4-(4-methylpiperazin-1-yl)phenyl]amino}pyrimidin-4-yl)benzonitrile]",50 to 500
13,"CCC(C)(C)C(=O)Nc1ccc(-c2ccnc(Nc3ccc(N4CCOCC4)cc3)n2)cc1C#N [Example 77, N-[2-cyano-4-(2-{[4-(morpholin-4-yl)phenyl]amino}pyrimidin-4-yl)phenyl]-2,2-dimethylbutanamide]",50 to 500
14,"COc1cc(NC(=O)NCCN(C)C)cc(Nc2nccc(-c3ccc(OC)c(C#N)c3)n2)c1 [compound 360, 1-(3-{[4-(3-Cyano-4-methoxyphenyl)pyrimidin-2-yl]amino}-5-methoxyphenyl)-3-[2-(dimethylamino)ethyl]urea]",50 to 500
15,"N#Cc1cc(-c2ccnc(Nc3ccc(F)c(F)c3)n2)ccc1O[C@@H]1CCN(C(=O)CO)C1 [compound 582, 5-{2-[(3,4-Difluorophenyl)amino]pyrimidin-4-yl}-2-{[(3R)-1-(hydroxyacetyl)pyrrolidin-3-yl]oxy}benzonitrile]",5 to 50
16,"N#Cc1cc(-c2ccnc(Nc3ccc(N4CCOCC4)cc3)n2)ccc1NC(=O)NC1CCCCC1 [Example 61, 1-[2-cyano-4-(2-{[4-(morpholin-4-yl)phenyl]amino}pyrimidin-4-yl)phenyl]-3-cyclohexylurea]",50 to 500
17,"CC(C)C(=O)Nc1ccc(-c2ccnc(Nc3ccc(C(C)C(=O)N4CCOCC4)cc3)n2)cc1C#N (stereo not shown) [compound 453, N-{2-cyano-4-[2-({4-[1-(morpholin-4-yl)-1-oxopropoan-2-yl]phenyl}amino)pyrimidin-4-yl]phenyl}-2-methylpropanamide]",5 to 50
18,COc1cc(NC(=O)NC2CCN(C)CC2)cc(Nc2nccc(-c3ccc(OC)c(C#N)c3)n2)c1 [compound 388],50 to 500
19,"COc1ccc(Nc2nccc(-c3cccc(C#N)c3)n2)cc1 [compound 319, 3-{2-[(4-Methoxyphenyl)amino]pyrimidin-4-yl}benzonitrile]",50 to 500

# Results, then the molecule that gave them:
row,IC50 [nM],Compound
1,5 to 50,"N#Cc1cc(-c2ccnc(Nc3ccc(N4CCOCC4)cc3)n2)ccc1OC1CCN(C(=O)[C@H](O)C(F)(F)F)CC1 [Example 57, 5-(2-{[4-(Morpholin-4-yl)phenyl]amino}pyrimidin-4-yl)-2-({1-[(2S)-3,3,3-trifluoro-2-hydroxypropanoyl]piperidin-4-yl}oxy)benzonitrile]"
2,5 to 50,"COc1cc(NC(=O)Nc2ccccc2)cc(Nc2nccc(-c3ccc(OC)c(C#N)c3)n2)c1 [compound 364, 1-(3-{[4-(3-Cyano-4-methoxyphenyl)pyrimidin-2-yl]amino}-5-methoxyphenyl)-3-phenylurea]"
3,< 5,"COc1cc(Nc2nccc(-c3ccc(OCC4CC4)c(C#N)c3)n2)ccc1C(=O)N1CC(OC)C1 [compound 621, 2-(Cyclopropylmethoxy)-5-[2-({3-methoxy-4-[(3-methoxyazetidin-1-yl)carbonyl]phenyl}amino)pyrimidin-4-yl]benzonitrile]"
4,5 to 50,"COc1ccc(-c2ccnc(Nc3cc(CNCCO)c(OC)c(OC)c3)n2)cc1C#N [Example 173, 5-{2-[(3-{[(2-Hydroxyethyl)amino]methyl}-4,5-dimethoxyphenyl)amino]pyrimidin-4-yl}-2-methoxybenzonitrile]"
5,5 to 50,"CC(=O)N1CCC(CCOc2ccc(-c3ccnc(Nc4ccc(N5CCOCC5)cc4)n3)cc2C#N)CC1 [Example 156, 2-[2-(1-acetylpiperidin-4-yl)ethoxy]-5-(2-{[4-(morpholin-4-yl)phenyl}amino}pyrimidin-4-yl)benzonitrile]"
6,5 to 50,"N#Cc1cc(-c2ccnc(Nc3ccc(N4CCOCC4)cc3)n2)ccc1NC(=O)C(F)(F)C(F)F [compound 441, N-[2-Cyano-4-(2-{[4-(morpholin-4-yl)phenyl]amino}pyrimidin-4-yl)phenyl]-2,2,3,3-tetrafluoropropanamide]"
7,5 to 50,"CC(C)C(=O)Nc1ccc(-c2ccnc(Nc3ccc(CN4CCN(CCO)CC4)cc3)n2)cc1C#N [compound 426, N-(2-cyano-4-{2-[(4-{[4-(2-hydroxyethyl)piperazin-1-yl]methyl}phenyl)amino]pyrimidin-4-yl}phenyl)-2-methylpropanamide]"
8,5 to 50,COc1ccc(-c2ccnc(Nc3ccc(S(=O)(=O)NCCN(C)C)c(OC)c3)n2)cc1C#N [compound 384]
9,5 to 50,"CC(C)C(=O)Nc1ccc(-c2ccnc(Nc3cccc(OCCCN4CCOCC4)c3)n2)cc1C#N [compound 429, N-{2-cyano-4-[2-({3-[3-(morpholin-4-yl)propoxy]phenyl}amino)pyrimidin-4-yl]phenyl}-2-methylpropanamide]"
10,5 to 50,"COc1ccc(-c2ccnc(Nc3cccc(N)c3)n2)cc1C#N [compound 321, 5-{2-[(3-Aminophenyl)amino]pyrimidin-4-yl}-2-methoxybenzonitrile]"
11,5 to 50,"COc1ccc(-c2ccnc(Nc3cccc(NC(=O)NCCCO)c3)n2)cc1C#N [compound 310, 1-(3-{[4-(3-Cyano-4-methoxyphenyl)pyrimidin-2-yl]amino}phenyl)-3-(3-hydroxypropyl)urea]"
12,5 to 50,"CC(C)C(=O)Nc1ccc(-c2ccnc(Nc3ccc(OCCN4CCOCC4)cc3)n2)cc1C#N [compound 431, N-{2-cyano-4-[2-({4-[2-(morpholin-4-yl)ethoxy]phenyl}amino)pyrimidin-4-yl]phenyl}-2-methylpropanamide]"
